Measured values: PMC11843613, “Further Optimization of the mGlu1 PAM VU6024578/BI02982816: Discovery and Characterization of VU6033685” (ACS Chemical Neuroscience, 2025)

Key:
[1] = Unbound fraction in brain (rat); format: in vitro ADME; conditions: read-out: fu brain (rat)
[2] = Predicted hepatic clearance from hepatic microsomes (human); format: in vitro ADME
Protocol: Intrinsic clearance: Human or rat hepatic microsomes (0.5 mg/mL) and 1 µM test compound were incubated in 100 mM potassium phosphate pH 7.4 buffer with 3 mM MgCl2 at 37°C with constant shaking.
After a 5 min preincubation, the reaction was initiated by addition of NADPH (1 mM). At selected time intervals (0, 3, 7, 15, 25, and 45 min), aliquots were taken and subsequently placed into a 96-well plate containing cold acetonitrile with internal standard (50 ng/mL carbamazepine). Plates were then centrifuged at 3000 rcf (4° C) for 10 min, and the supernatant was transferred to a separate 96-well plate and diluted 1:1 with water for LC/MS/MS analysis. The in vitro half-life (T 1/2, min, Eq. 1), intrinsic clearance (CLint, mL/min/kg, Eq. 2) and subsequent predicted hepatic clearance (CLhep, mL/min/kg, Eq. 3) was determined […]
employing the following equations: […]
where k represents the slope from linear regression analysis of the natural log percent remaining of test compound as a function of incubation time
0.693 mL incubation 45 mg microsomes 20a gram liver
(2) CLint = in vitroT x mg microsomes x gram liver x kg body wt […]
ascale-up factors: of 20 (human) or 45 (rat) […]
where Qh (hepatic blood flow, mL/min/kg) is 21 (human) or 70 (rat).
LC/MS/MS Bioanalysis of Samples from Plasma Protein Binding and Intrinsic Clearance Assays. Samples were analyzed on a Thermo Electron TSQ Quantum Ultra triple quad mass spectrometer (San Jose, CA) via electrospray ionization (ESI) with two Themo Electron Accella pumps (San Jose, CA), and a Leap Technologies CTC PAL autosampler (Carrboro, NC). Analytes were separated by gradient elution on a dual column system with two Thermo Hypersil Gold (2.1 x 30 mm, 1.9 µm) columns (San Jose, CA) thermostated at 40°C. HPLC mobile phase A was 0.1% formic acid in water and mobile phase B was 0.1% formic acid in acetonitrile. The gradient […]
95% B for 0.2 min; returned to 10% B in 0.1 min. The total run time was 1.3 min and the HPLC flow rate was 0.8 mL/min. While pump 1 ran the gradient method, pump 2 equilibrated the alternate column isocratically at 10% B. Compound optimization, data collection and […]

[3] = Rat CNS penetration (brain:plasma); format: in vivo; conditions: male, Sprague-Dawley, intraperitoneal, 10 mg/kg; for Kp at 0.25 h: brain and plasma, rat brain:plasma; for Kp uu at 0.25 h: rat, brain/plasma
Protocol: In vivo DMPK experimental
Compounds were formulated as 10% tween 80 micro suspensions in sterile water at the concentration of 1 mg/ml and administered intraperitoneally to male Sprague- Dawley rats weighing 225 to 250 g (Harlan, Inc., Indianapolis, IN) at the dose of 10 mg/kg. The rat blood and brain were collected at 0.25 hr. Animals were euthanized and decapitated, and the brains were removed, thoroughly washed in cold phosphate buffered saline and immediately frozen on dry ice.
Trunk blood was collected in EDTA Vacutainer tubes, and plasma was separated by centrifugation and stored at -80°C until analysis. Plasma was separated by centrifugation (4000 rcf, 4°C) and stored at […] until analysis. On the day of analysis, frozen whole-rat brains were weighed and diluted with 1:3 (w/w) parts of 70:30 isopropanol:water. The mixture was then subjected to mechanical homogenation employing a Mini-Beadbeater™ and 1.0 mm Zirconia/Silica Beads (BioSpec Products) followed by centrifugation. The sample extraction of plasma (20 μL) or brain homogenate (20 μL) was performed by a method based on protein precipitation using three volumes of ice-cold acetonitrile containing an internal standard (50 ng/mL carbamazepine). The samples were centrifuged (3000 rcf, 5 min) and supernatants transferred and diluted 1:1 (supernatant: water) into a new 96 well plate, which was then sealed in preparation for LC/MS/MS […]
In vivo samples were analyzed via electrospray ionization (ESI) on an AB Sciex API-5500 QTrap (Foster City, CA) instrument that was coupled with Shimadzu LC-20AD pumps (Columbia, MD) and a Leap Technologies CTC PAL auto-sampler (Carrboro, NC). Analytes were separated by gradient elution using a Fortis C18 3.0 x 50 mm, 3 µm column (Fortis Technologies Ltd, Cheshire, UK) thermostated at 40°C. HPLC mobile phase A was 0.1% formic acid in water (pH unadjusted), mobile phase B was 0.1% formic acid in acetonitrile (pH unadjusted). The gradient started at 30% […]
min and returned to 30% B in 0.1 min followed by a re-equilibration (0.9 min). The total run time was 2.5 min and the HPLC flow rate was 0.5 mL/min. The source temperature was set at 500°C and mass spectral analyses were performed using multiple reaction monitoring (MRM), with transitions specific for each compound utilizing a Turbo-Ionspray® source in positive ionization […]
mode (5.0 kV spray voltage). The calibration curves were constructed in blank plasma. All data were analyzed using AB Sciex Analyst software v1.5.1.
All animal study procedures were approved by the Institutional Animal Care and Use Committee and were conducted in accordance with the National Institutes of Health regulations of animal care covered in Principles of Laboratory Animal Care (National Institutes of Health). […]
GraphPad Prism (version 4.03, GraphPad, La Jolla, CA). […]

SMILES | fraction unbound [1] | Predicted CLhep (h) [2] [mL/min/kg] | Kp at 0.25 h [3] | Kp uu at 0.25 h [3]
Cn1cc(-c2cc(CNC(=O)c3cc(-c4ccco4)ccc3Cl)n(C)n2)cn1 [compound 4] | 0.044 | 15.1 | 0.89 | 0.98
Cn1nc(-c2ccnn2C)cc1CNC(=O)c1cc(-n2cccn2)ccc1Cl [compound 5] | 0.185 | 4.6 | 0.3 | 0.52
Cc1nc2ccccc2cc1CNC(=O)c1cc(-n2cccn2)ccc1Cl [compound 6] | 0.047 | 15.8 | – | –
Cc1nc2c(F)cccc2cc1CNC(=O)c1cc(-n2cccn2)ccc1Cl [compound 7] | 0.04 | 13.3 | 0.98 | –
Cc1nc(C2CC2)ccc1CNC(=O)c1cc(-n2cccn2)ccc1Cl [compound 8] | 0.062 | 9.9 | 1.8 | 1.2
